Experimental data as given in patent US20250082794A1, “ANTIMONY CHELATES FOR TARGETED AUGER THERAPY AND IMAGING DIAGNOSTICS” (Wisconsin Alumni Research Foundation, priority 2023, published 2025).

Assay: SPECT and PET imaging biodistribution in mice
Assay type: in vivo, BALB/c mice
Experimental: For in vivo imaging and stability studies, ^117Sb was produced in 0.5 M NH4OAc at the University of Wisconsin-Madison and experiments were conducted the same day. 2 mL of ^117Sb in 0.5 M NH4OAc pH 4 solution was combined with 220 μL of 10 mM TRENCAM in 20% DMSO solution and heated to 80° C. for 1 h. Quantitative radiolabeling was confirmed via TLC. A 1:5 dilution of the radiolabeling solution with DI H2O was performed before passing it through a C8 Sep-Pak® cartridge (Waters, Milford, MA, USA), preconditioned with 5 mL EtOH and 5 mL H2O) to trap the [^117Sb]Sb-TRENCAM complex. The cartridge was rinsed with 1 mL H2O to remove NH4OAc buffer and unchelated ^117/119Sb, and then the [^117Sb]Sb-TRENCAM complex was eluted with EtOH and collected dropwise. […]
Two groups of healthy 3-month-old male BALB/c mice (n=3) ([…]) were injected with 150 μL ^117Sb solutions. […] In both cases, scanner calibration occurred by imaging vials of ^117Sb activity and correlating image signal strength to activity measured via High Purity Germanium (HPGe) gamma spectroscopy. […] Using co-registered CT images, manual volume-of-interest delineation of tissues allowed activity biodistribution measurement, as expressed as percent injected activity per gram of tissue (% IA/g), using either Inveon Research Workstation (Siemens) for PET VOI analysis or Imalytics 3.0 (MILabs) for SPECT VOI analysis. […]

With `[OH][Sb-]([OH])([OH])([OH])([OH])[OH]` [[^117Sb]Sb(OH)6^−] the “uptake in bone (PET images)” value (PET 150 min post injection) was “uptake” and the “clearance route and organ uptake by PET and SPECT imaging” value (tail vein injection, imaged 20-240 min post injection) was “renal clearance with liver accumulation”.
